Experimental data: PubChem BioAssay (NCI)
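Cultured in 96-well plates, cells were exposed to test compound for 48 hours across five concentrations. Definition used: TGI = concentration required for complete inhibition of growth.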

Tests used:
Assay in all cases: growth of human tumour cells (NCI), 48 h
[1] = test system: A549 NSCLC
[2] = test system: SN12C renal
[3] = test system: MDA-N
[4] = test system: NCI/ADR-RES ovarian
[5] = test system: HCT-15 colon
[6] = test system: EKVX NSCLC
[7] = test system: SNB-19 CNS
[8] = test system: K-562 leukemia
[9] = test system: HCT-116 colon
[10] = test system: TK-10 renal
[11] = test system: KM12 colon
[12] = test system: IGROV1 ovarian
[13] = test system: DU-145 prostate
[14] = test system: A498 renal
[15] = test system: 786-0 renal
[16] = test system: UACC-62 melanoma
[17] = test system: OVCAR-5 ovarian
[18] = test system: HOP-92 NSCLC
[19] = test system: NCI-H23 lung
[20] = test system: NCI-H522 lung

Structure (SMILES) | TGI [1] [µM] | TGI [2] [µM] | TGI [3] [µM] | TGI [4] [µM] | TGI [5] [µM] | TGI [6] [µM] | TGI [7] [µM] | TGI [8] [µM] | TGI [9] [µM] | TGI [10] [µM] | TGI [11] [µM] | TGI [12] [µM] | TGI [13] [µM] | TGI [14] [µM] | TGI [15] [µM] | TGI [16] [µM] | TGI [17] [µM] | TGI [18] [µM] | TGI [19] [µM] | TGI [20] [µM]
C/C=C(C)/C=C/CC(C)CCC=C(C)C (centres undefined) | > 100 | > 100 | > 100 | > 100 | > 100 | > 100 | > 100 | > 100 | > 100 | > 100 | > 100 | > 100 | > 100 | > 100 | > 100 | > 100 | > 100 | > 100 | – | –
Cc1ccc(CC(=O)Nc2ccc(NC(=O)/C=C/NC(=O)/C=C/c3ccc(-c4ccccc4)cc3)cc2C(=O)c2ccccc2)cc1 | 4.32 | 5.51 | 6.61 | > 100 | 9.53 | 3.58 | 16 | > 100 | 2.96 | 8.72 | 14.6 | 2.16 | > 100 | 5.31 | 3.34 | 4.87 | 5.77 | – | 4.2 | –
COc1cc(C2c3cc4c(cc3OC(NC3CCCCC3)C2C)OCO4)cc(OC)c1OC (centres undefined) | > 85.3 | > 41.9 | – | 3.86 | > 45.4 | > 100 | > 100 | > 21.5 | 15.5 | > 68.8 | 7.89 | > 54 | > 100 | 25 | 20.1 | 43.2 | > 100 | 22.1 | 11 | 2.28
O=C(Nc1cc(C(=O)Nc2cccc(S(=O)(=O)O)c2)cc(C(=O)Nc2cccc(S(=O)(=O)O)c2)c1)c1cccc(C(=O)Nc2cc(C(=O)Nc3cccc(S(=O)(=O)O)c3)cc(C(=O)Nc3cccc(S(=O)(=O)O)c3)c2)c1 | > 100 | > 100 | > 100 | > 100 | > 100 | > 100 | – | 58.6 | > 100 | > 100 | > 100 | > 100 | > 100 | > 100 | > 100 | > 100 | > 100 | – | > 100 | > 100
Cc1cc(C)nc(NS(=O)(=O)c2ccc(Nc3nncc(=O)n3N)cc2)n1 | > 100 | – | 30 | 55.9 | 28.8 | 62.7 | 83 | 43.9 | 87.8 | – | > 100 | 33.1 | > 100 | > 100 | 29.2 | 51.2 | 37.2 | – | 28.6 | 26.2
O=C(O)CNC(=O)CO/N=C1/C(c2c(O)[nH]c3ccccc23)=Nc2ccccc21 | > 100 | > 100 | > 100 | > 100 | > 100 | > 100 | > 100 | > 100 | > 100 | > 100 | > 100 | > 100 | > 100 | – | > 100 | > 100 | > 100 | > 100 | > 100 | > 100
C/C=C/c1c(O)c(=O)c2c(OC)cc(OC)c3c4c(OC)cc(OC)c5c(=O)c(O)c(/C=C/C)c(c1c23)c54 | > 100 | 41.8 | 29.4 | 34 | – | 40.5 | 17.2 | > 100 | 28 | – | 31.6 | 19.2 | 23.4 | > 100 | 38.2 | 30.6 | 68.9 | 35.5 | 23.9 | 16.9
O=C1CCCCC/C1=C\c1ccc(F)cc1 | > 100 | > 100 | > 100 | – | > 100 | > 100 | > 100 | > 100 | > 100 | > 100 | > 100 | > 100 | > 100 | > 100 | > 100 | > 100 | > 100 | > 100 | > 100 | > 100
O=C(O)CN1CCNCCN(CP(=O)(O)O)CC1 | > 100 | > 100 | > 100 | – | > 100 | > 100 | > 100 | > 100 | > 27.5 | > 100 | > 100 | > 100 | > 100 | 99.1 | > 29.2 | > 100 | > 100 | > 100 | > 100 | > 26.8
O=[N+]([O-])C(Cl)C(Cl)C(Cl)=C(Cl)Cl (centres undefined) | > 100 | > 57.7 | 40.6 | > 73.9 | 39.7 | > 100 | > 100 | 85.2 | 38.3 | 39.4 | > 100 | 18.3 | > 100 | > 100 | 22.3 | 32.9 | > 82.2 | – | 60.4 | 38.4
CC1(c2ccc(F)cc2)CC(c2ccc(F)cc2)=C(C#N)C(=C(C#N)C#N)N1 (centres undefined) | 41.7 | 34.5 | 34.3 | 48.4 | 31.7 | 31.5 | 35.1 | 38.1 | 30.5 | 32.2 | 30.1 | 32.3 | 28.5 | 35.8 | 29.3 | 28.1 | 38.5 | 34.9 | 36.5 | –
CC(C)CNC(=O)CCc1cccc2c1oc1c(CCN)cccc12 | 35.6 | 32.2 | 40.5 | 40.3 | 43 | 27.6 | 15.9 | 14.2 | 21.5 | – | 28.4 | 23.7 | 33.8 | 32.3 | 24.9 | 32 | 28.7 | 22.7 | 26.7 | 29.6
CCOP(C)(=O)C(Cc1c[nH]c2ccccc12)C(=O)O (centres undefined) | > 100 | > 100 | > 100 | > 100 | > 100 | > 100 | > 100 | > 100 | > 100 | – | > 100 | > 100 | > 100 | > 100 | > 100 | > 100 | > 100 | > 100 | – | > 100
CC1=NN(c2cccc(Cl)c2)C2(SCC(=O)N2c2nc3ccccc3s2)/C1=C\c1ccc(Cl)cc1 (centres undefined) | – | – | 69.8 | > 100 | 38.1 | > 100 | – | 41.3 | 31.3 | > 100 | 34.8 | 37.8 | 39.2 | 40.2 | 48.1 | – | 55.4 | 28.3 | 41.5 | 39.2
Cc1ccc(/C(O)=C/c2nc3ccccc3oc2=O)cc1 | > 100 | > 100 | 59.3 | > 100 | > 100 | > 100 | > 100 | > 100 | > 100 | > 100 | > 100 | > 100 | > 100 | > 100 | > 100 | > 100 | > 100 | – | > 100 | 90.1
CCOC(=O)Cc1nnc2c(-c3ccccc3)nc3ccccc3n12 | > 100 | > 100 | > 100 | > 100 | > 100 | 79.8 | 62.1 | > 100 | > 100 | > 100 | > 100 | > 100 | 73.4 | > 100 | > 100 | > 100 | > 100 | > 100 | > 100 | –
Cc1ccc(S(=O)(=O)N2CC3OC(C)(C)OC3C2CO)cc1 (centres undefined) | > 100 | > 100 | > 100 | > 100 | > 100 | – | – | > 100 | > 100 | > 100 | > 100 | > 100 | > 100 | > 100 | > 100 | – | > 100 | > 100 | – | > 100
COc1cc(O)cc(/C=C/c2ccc(O)cc2)c1 | > 100 | 77.8 | – | > 100 | 29.9 | 94.1 | > 100 | 98.2 | > 100 | 93.6 | 93.7 | > 100 | > 100 | 94.3 | > 100 | 60.5 | > 100 | 91.9 | 96.1 | > 100
CCN(CC)CC(=O)Nc1c(C(N)=O)nnn1Cc1cc(Cl)c(C(=O)c2ccc(Cl)cc2)c(Cl)c1 | 79.6 | 50.3 | – | 34.7 | 34.4 | > 100 | > 100 | 37.4 | 32.1 | 57.4 | 35.8 | 74.4 | 90.2 | > 100 | 31.4 | 35.4 | 40.7 | 53.2 | 37.4 | 41.3
COc1ccc(N(C)S(=O)(=O)c2ccccc2)cc1 | > 100 | > 100 | > 100 | > 100 | > 100 | > 100 | > 100 | > 100 | > 100 | > 100 | > 100 | > 100 | > 100 | – | > 100 | > 100 | > 100 | – | > 100 | > 100
C=CCCCC1CCCNC1=O (centres undefined) | > 100 | > 100 | > 100 | – | > 100 | > 100 | > 100 | > 100 | > 100 | > 100 | > 100 | > 100 | > 100 | > 100 | > 100 | > 100 | > 100 | > 100 | > 100 | > 100
COc1ccc(CN2C[C@H]3[C@@H](CC(=O)O[C@H]3C)CC2=O)cc1 | > 100 | – | > 100 | > 100 | > 100 | > 100 | > 100 | > 100 | > 100 | – | > 100 | > 100 | > 100 | > 100 | > 100 | > 100 | > 100 | > 100 | > 100 | > 100
OC(c1nc2ccccc2s1)(C(F)(F)F)C(F)(F)F | > 100 | > 100 | > 100 | > 100 | > 100 | > 100 | > 100 | > 100 | > 100 | > 100 | > 100 | > 100 | > 100 | > 100 | > 100 | > 100 | > 100 | – | > 100 | > 100
CCC(=O)Nc1ccc(N=Cc2cccc(Oc3ccccc3)c2)cc1 | > 100 | > 100 | > 100 | > 100 | > 100 | > 100 | > 100 | > 100 | > 100 | – | > 100 | > 100 | > 100 | > 100 | > 100 | > 100 | – | > 100 | > 100 | > 100
CC1Cc2c(Br)nc(N)nc2NC1=O (centres undefined) | > 100 | > 100 | > 100 | > 100 | > 100 | > 100 | > 100 | > 100 | > 100 | > 100 | > 100 | > 100 | > 100 | > 100 | > 100 | > 100 | > 100 | – | > 100 | > 100
